{
  "source": "patent US5037637A",
  "about": "“Antibacterial antiplaque, anticalculus oral composition” (priority 1989, dated 1991)",
  "key": {"[1]": {"experiment": "Human clinical tests, reduction of plaque formation", "type": "in vivo"}, "[2]": {"tested_on": "four dental plaque organisms", "experiment": "Antibacterial effect on the four dental plaque organisms (summary in words)", "type": "cell-based", "conditions": "solutions without TCHE", "protocol": "Slurries and solutions described below are prepared to determine effectiveness in terms of minimum inhibitory concentration (MIC) of various antibacterial agents against a variety of oral bacterial organisms implicated in formation of plaque and leading to gingivitis on dental surfaces. Soft plaque contains about 1.7×10^11 organism/gm. (net weight). The antibacterial agents are admixed with anionic materials, particularly anionic surface active agent often commonly employed in oral compositions and polyphosphate anticalculus agent.\nMinimum inhibitory concentration (MIC) of antibacterial agent is used to evaluate the efficacy of the agent in vitro. […] The smaller the MIC value the greater is the efficacy of the antibacterial agent to inhibit the growth of the bacteria. The in vitro MIC data is related to the efficacy of the dentifrice in vivo since retention and release of antibacterial agent into the oral cavity after toothbrushing is in the range of mcg/ml."}, "[3]": {"experiment": "Adsorption of TCHE to saliva coated tooth mineral hydroxyapatite", "design": "species or system human", "conditions": "for % of TCHE Adsorbed to Coated HA: 37°, 3 hours", "protocol": "The adsorption to and release from tooth minerals for antiplaque/ antitartar efficacy of agents is assessed by adsorption of antibacterial agent to saliva coated tooth mineral hydroxyapatite in the presence and the absence of pyrophosphate (soluble tetrasodium pyrophosphate)/Gantrez/NaF.\n200 mg. of hydroxyapatite (HA) is treated with human saliva for 2 hours. The excess saliva is washed with a buffer and saliva coated HA is used for adsorption studies. Various concentrations of TCHE in SLS or in SLS/pyrophosphate/Gantrez/NaF are mixed with the coated HA and incubated at 37° for 3 hours under continuous agitation. At the end of incubation period, the mixtures are centrifuged, HA separated and the amounts of TCHE adsorbed determined by estimating TCHE in the supernatant at […] in a Gilford spectrophotometer. The amounts adsorbed are calculated by the difference between the amount added and the amount left in the supernatant after the incubation with coated HA. The table below summarizes the data."}, "Bacteriodes gingivalis": {"tested_on": "Bacteriodes gingivalis", "experiment": "Antibacterial activity of dentifrice extracts, inhibition of growth", "type": "cell-based", "protocol": "The dentifrice described in Example 3A is compared with the same composition except without any TCHE and with added 0.50 parts of water. Aqueous extracts of each dentifrice are prepared as follows: 50 ml of distilled water is added to 1.0 gm of each dentifrice, mixed well for a couple of hours with stirring bar and centrifuged, after which the supernatant is collected as aqueous extract. Antibacterial activity of the dentifrice extracts are evaluated on Bacteriodes gingivalis."}},
  "data": [
    {"smiles": "CC(C)(C)CC(C)(C)c1ccc(OCCOCC[N+](C)(C)Cc2ccccc2)cc1", "note": "[BTC, benzthonium chloride]", "values": [
      {"measurement": "reducing plaque formation", "setting": "[1]; 0.075% BTC and 1% pyrophosphate dissolved in water", "value": "is not"},
      {"measurement": "reducing plaque formation", "setting": "[1]; 0.075% BTC dissolved in water", "value": "effective in reducing plaque formation"}
    ]},
    {"smiles": "[H]/N=C(\\N/C(=N/[H])NCCCCCCNC(=N)NC(=N)Nc1ccc(Cl)cc1)Nc1ccc(Cl)cc1", "note": "[CH, chlorhexidine digluconate]", "values": [
      {"measurement": "reducing plaque formation", "setting": "[1]; 0.1% CH and 1% sodium N-lauroyl sarcosinate dissolved in water", "value": "is not"},
      {"measurement": "reducing plaque formation", "setting": "[1]; 0.1% CH dissolved in water", "value": "effective in reducing plaque formation"}
    ]},
    {"smiles": "CCCCCCCCCCCCOS(=O)(=O)[O-].[Na+]", "note": "[SLS, sodium lauryl sulfate]", "values": [
      {"measurement": "antibacterial effect", "setting": "[2]", "value": "ineffective"}
    ]},
    {"smiles": "Oc1cc(Cl)ccc1Oc1ccc(Cl)cc1Cl", "note": "[TCHE, 2,4,4'-trichloro-2'-hydroxydiphenyl ether]", "values": [
      {"measurement": "% of TCHE Adsorbed to Coated HA", "setting": "[3]; 0.005% TCHE in 1% SLS, 0.5% Gantrez, 2% pyrophosphate/0.24% NaF", "value": 80, "unit": "%"},
      {"measurement": "% of TCHE Adsorbed to Coated HA", "setting": "[3]; 0.005% TCHE in 1% SLS", "value": 80, "unit": "%"},
      {"measurement": "% of TCHE Adsorbed to Coated HA", "setting": "[3]; 0.01% TCHE in 1% SLS, 0.5% Gantrez, 2% pyrophosphate/0.24% NaF", "value": 85, "unit": "%"},
      {"measurement": "% of TCHE Adsorbed to Coated HA", "setting": "[3]; 0.01% TCHE in 1% SLS", "value": 85, "unit": "%"},
      {"measurement": "% of TCHE Adsorbed to Coated HA", "setting": "[3]; 0.015% TCHE in 1% SLS, 0.5% Gantrez, 2% pyrophosphate/0.24% NaF", "value": 86, "unit": "%"},
      {"measurement": "% of TCHE Adsorbed to Coated HA", "setting": "[3]; 0.015% TCHE in 1% SLS", "value": 85, "unit": "%"},
      {"measurement": "% of TCHE Adsorbed to Coated HA", "setting": "[3]; 0.02% TCHE in 1% SLS, 0.5% Gantrez, 2% pyrophosphate/0.24% NaF", "value": 87, "unit": "%"},
      {"measurement": "% of TCHE Adsorbed to Coated HA", "setting": "[3]; 0.02% TCHE in 1% SLS", "value": 88, "unit": "%"},
      {"measurement": "effect of addition of pyrophosphate/Gantrez/NaF on adsorption of TCHE to saliva coated tooth minerals", "setting": "[3]; with vs without pyrophosphate/Gantrez/NaF", "value": "does not impair adsorption"},
      {"measurement": "compatibility in dentifrice composition containing anionic surfactant plus pyrophosphate with Gantrez and NaF", "setting": "Bacteriodes gingivalis; from growth inhibition by dentifrice extracts", "value": "compatible"},
      {"measurement": "inhibition at 5 µg/mL", "setting": "Bacteriodes gingivalis; read-out: Inhibition of Growth of Bacteriodes Gingivalis", "value": 100, "unit": "%"}
    ]}
  ]
}
